The data set in a line: Moisture sensitivity of Compound I. It is filed as physicochemical. The text has this:
This monohydrochloride of formula (I) (hereinafter, “Compound I”) is described in scheme 2 of Villhauer et al., J Med Chem, Vol. 45, No. 12, pp. 2362-65 (2002), which is hereby incorporated by reference. Compound I is a moisture-sensitive therapeutic compound. At humidities above 75%, Compound I absorbs moisture and begins to deliquesce; moreover, Compound I undergoes both acidic and basic degradation with cyclic imidate (“CI”) being the major degradation product.

Turning to `Cl.N#Cc1ccc(NCCNCC(=O)N2CCC[C@H]2C#N)nc1` [Compound I, [S]-1-[2-(5-cyano-2-pyridinylamino)ethylamino]acetyl-2-pyrolidine carbonitrile monohydrochloride], the “humidity at which Compound I absorbs moisture and begins to deliquesce” value was “above 75%”.

The record behind these values is patent publication US20080050443A1, “Fast Release Composition Including Melt Granules of a Moisture Sensitive Drug and Process for Manufacturing Thereof” (priority 2004, published 2008).
